What all share (type): functional
Common to all, as to details: Sus scrofa, LLC-PK1, 24 h; read-out: Activity

Experiment [1] relates to LLC-PK1. Description: Renoprotective activity against AAPH-induced oxidative damage in pig LLC-PK1 cells assessed as cell viability at 1 ug/ml after 24 hrs by MTT assay relative to control. A general note: Tetrazolium assays rely on reduction of a dye to a coloured formazan, in cell work by metabolically active cells.
Experiment [2] relates to LLC-PK1. The experiment can be described thus: Renoprotective activity against AAPH-induced oxidative damage in pig LLC-PK1 cells assessed as cell viability at 5 ug/ml after 24 hrs by MTT assay relative to control.
The subject of experiment [3] is LLC-PK1. Description: Renoprotective activity against AAPH-induced oxidative damage in pig LLC-PK1 cells assessed as cell viability at 10 ug/ml after 24 hrs by MTT assay relative to control.

Take `C=C(CCC=C(C)C)[C@H]1CC[C@]2(C)[C@@H]1[C@H](O)C[C@@H]1[C@@]3(C)CC[C@H](O)C(C)(C)[C@@H]3CC[C@]12C`: in the experiment on LLC-PK1 [1], the viability at 1 µg/mL was found to be 61.8%. For the same compound, the viability at 5 µg/mL with LLC-PK1 [2] came to 69.9%. Moreover, in the experiment with LLC-PK1 [3], the viability at 10 µg/mL came out at 85.5%.

With `C=C(CCC=C(C)C)[C@H]1CC[C@]2(C)[C@@H]1[C@H](O)C[C@@H]1[C@@]3(C)CC[C@H](O)C(C)(C)[C@@H]3[C@@H](O)C[C@]12C`, the viability at 1 µg/mL in the experiment on LLC-PK1 [1] was determined as 76.9%. In the experiment on LLC-PK1 [2], the viability at 5 µg/mL was determined as 94.4%. The viability at 10 µg/mL with LLC-PK1 [3] was found to be 101%.

For `CC(C)=CC/C=C(\C)[C@H]1CC[C@]2(C)[C@@H]1[C@H](O)C[C@@H]1[C@@]3(C)CC[C@H](O)C(C)(C)[C@@H]3CC[C@]12C`, the viability at 1 µg/mL in the experiment with LLC-PK1 [1] turned out to be 60.7%. Besides, in the experiment with LLC-PK1 [2], the viability at 5 µg/mL came out at 63.7%. The viability at 10 µg/mL with LLC-PK1 [3] was 64.6%.

With `CC(C)=CC/C=C(\C)[C@H]1CC[C@]2(C)[C@@H]1[C@H](O)C[C@@H]1[C@@]3(C)CC[C@H](O)C(C)(C)[C@@H]3[C@@H](O)C[C@]12C`, the viability at 1 µg/mL with LLC-PK1 [1] is 61.5%. In the experiment with LLC-PK1 [2], the viability at 5 µg/mL amounted to 63.3%. Also, in the experiment with LLC-PK1 [3], the viability at 10 µg/mL is 63.3%.

`CC(C)=CCC[C@](C)(O)[C@H]1CC[C@]2(C)[C@@H]1[C@H](O)C[C@@H]1[C@@]3(C)CC[C@H](O)C(C)(C)[C@@H]3[C@@H](O)C[C@]12C`: in the experiment on LLC-PK1 [1], the viability at 1 µg/mL turned out to be 61.1%. The viability at 5 µg/mL with LLC-PK1 [2] was determined as 73.3%. Also, the viability at 10 µg/mL with LLC-PK1 [3] came to 85.7%.

Turning to `CC(C)=CCC[C@](C)(O)[C@H]1CC[C@]2(C)[C@@H]1[C@H](O)C[C@@H]1[C@@]3(C)CC[C@H](O)C(C)(C)[C@@H]3CC[C@]12C`, the viability at 1 µg/mL in the experiment with LLC-PK1 [1] is 62.2%. The viability at 5 µg/mL with LLC-PK1 [2] came to 72.6%. For the same compound, the viability at 10 µg/mL with LLC-PK1 [3] came out at 62.6%.

The record behind these values is ChEMBL document CHEMBL1938278, “Protective effect of ginseng sapogenins against 2,2'-azobis (1-aminopropane) dihydrochloride (AAPH)-induced LLC-PK₁ cell damage” (2012).
